Test results from PubChem BioAssay (NCI).
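How tested: cells in 96-well plates exposed to compound for 48 hours at five concentrations. GI50 marks 50% less growth. TGI: concentration producing complete growth inhibition.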

Key:
Test in all cases: growth of human tumour cells (NCI), 48 h
HOP-92 NSCLC = tested on: HOP-92 NSCLC
HS 578T breast = tested on: HS 578T breast
IGROV1 ovarian = tested on: IGROV1 ovarian
SF-268 CNS = tested on: SF-268 CNS
SR leukemia = tested on: SR leukemia
OVCAR-3 ovarian = tested on: OVCAR-3 ovarian
MCF7 breast = tested on: MCF7 breast
KM12 colon = tested on: KM12 colon
CAKI-1 renal = tested on: CAKI-1 renal
ACHN renal = tested on: ACHN renal

SMILES	GI50 (HOP-92 NSCLC) [µM]	TGI (HOP-92 NSCLC) [µM]	GI50 (HS 578T breast) [µM]	TGI (HS 578T breast) [µM]	GI50 (IGROV1 ovarian) [µM]	TGI (IGROV1 ovarian) [µM]	GI50 (SF-268 CNS) [µM]	TGI (SF-268 CNS) [µM]	GI50 (SR leukemia) [µM]	TGI (SR leukemia) [µM]	GI50 (OVCAR-3 ovarian) [µM]	TGI (OVCAR-3 ovarian) [µM]	GI50 (MCF7 breast) [µM]	TGI (MCF7 breast) [µM]	GI50 (KM12 colon) [µM]	TGI (KM12 colon) [µM]	GI50 (CAKI-1 renal) [µM]	TGI (CAKI-1 renal) [µM]	TGI (ACHN renal) [µM]
COc1ccc(-c2nc(-c3nc4cc(Cl)c(Cl)cc4[nH]3)c3ccccn23)cc1	1.82	5.1	2.68	7.02	3.73	> 100	2.59	6.83	6.26	> 100	3.18	> 100	7.2	> 100	> 100	> 100	3.32	> 100	–
Fc1ccc(/C=C2\COCC3=C2NC(=S)NC3c2ccc(F)cc2)cc1 (centres undefined)	–	34	–	52.7	–	76.3	–	33.9	–	45	–	32.6	–	39.5	–	63.2	–	76.2	> 100
CCCCCCc1cc2cc(C(=O)Nc3nc(C45CC6CC(CC(C6)C4)C5)cs3)c(=O)oc2cc1O	–	24.4	–	46.9	–	46.9	–	63	–	26.4	–	39.4	–	> 100	–	32.6	–	30.1	20.8
CCCCOc1ccc(/C=C/C2=[N+](CCO)CCO2)cc1	–	> 100	–	> 100	–	> 100	–	> 100	–	62.7	–	> 100	–	> 100	–	> 100	–	> 100	> 100
O=C1O/C(=C(\Br)c2ccc([N+](=O)[O-])cc2)c2ccccc21	–	> 100	–	> 100	–	> 100	–	> 100	–	> 71.4	–	> 100	–	> 100	–	> 100	–	> 100	> 100
CCCCOC(=O)Nc1ccc(S(=O)(=O)Nc2c(Cl)cccc2Cl)cc1	–	75.7	–	> 100	–	79.5	–	> 100	–	48.7	–	73.5	–	92.4	–	99.4	–	82.7	> 100
Fc1ccc(F)c(C=NC23CC4CC(CC(C4)C2)C3)c1	–	> 10	–	> 10	–	> 10	–	> 10	–	> 10	–	> 10	–	> 10	–	> 10	–	> 10	> 10
CCOC(=O)c1nc2ccccc2nc1Nc1cc(OC)c(OC)c(OC)c1	–	> 100	–	> 100	–	> 100	–	> 100	–	> 100	–	> 100	–	> 100	–	> 100	–	> 100	> 100
CCN1CC2=C(OC(N)=C(C#N)C2c2ccc(Cl)cc2)/C(=C/c2ccc(Cl)cc2)C1 (centres undefined)	–	58.6	–	> 100	–	> 100	–	49.6	–	> 100	–	> 100	–	> 100	–	> 100	–	30.5	45.9
COc1cc2c(c3nc4ccccc4nc13)-c1ccc(SC)c(=O)cc1[C@@H](NC(C)=O)CC2	–	> 75.1	–	0.0543	–	0.528	–	> 100	–	> 100	–	> 100	–	> 100	–	> 100	–	> 100	> 100
CCCSc1ccc2[nH]c(N3C(=O)/C(=C/c4ccc(O)c(OC)c4)N=C3c3ccccc3)cc2c1	–	> 100	–	14.3	–	> 100	–	> 100	–	> 100	–	> 100	–	> 100	–	> 100	–	> 100	> 100
COc1ccc(Nc2nc3ccccc3nc2-c2cccs2)cc1OC	–	> 10	–	> 10	–	> 10	–	> 10	–	> 10	–	> 10	–	> 10	–	> 10	–	> 10	> 10
O=[N+]([O-])C1=Cc2c(O)ccc(O)c2C2OC=CC12 (centres undefined)	–	58.8	–	61.6	–	45.4	–	35.5	–	> 74.5	–	21.3	–	30.9	–	32.5	–	25.8	29.1
C[C@]12CCC(=O)C=C1CC[C@@H]1[C@@H]2CC[C@]2(C)C(=O)/C(=C/c3ccc([N+](=O)[O-])cc3)C[C@@H]12	–	> 100	–	> 100	–	> 100	–	> 100	–	> 100	–	> 100	–	23.5	–	> 100	–	> 100	19.9
Cc1cc2c(cc1Cl)SSc1cc(Cl)c(C)cc1S(=O)(=O)Nc1nc(N)nn1C(O)n1nc(N)nc1NS2(=O)=O	–	> 10	–	> 10	–	> 10	–	> 10	–	> 10	–	> 10	–	> 10	–	> 10	–	> 10	> 10
CCN(CC)C1=Nc2ccccc2-n2ccnc2C1	–	> 100	–	> 100	–	> 100	–	> 100	–	> 100	–	> 100	–	> 100	–	> 100	–	> 100	> 100

SMILES	GI50 (HOP-92 NSCLC) [µM]	TGI (HOP-92 NSCLC) [µM]	GI50 (HS 578T breast) [µM]	TGI (HS 578T breast) [µM]	GI50 (IGROV1 ovarian) [µM]	TGI (IGROV1 ovarian) [µM]	GI50 (SF-268 CNS) [µM]	TGI (SF-268 CNS) [µM]	GI50 (SR leukemia) [µM]	TGI (SR leukemia) [µM]	GI50 (OVCAR-3 ovarian) [µM]	TGI (OVCAR-3 ovarian) [µM]	GI50 (MCF7 breast) [µM]	TGI (MCF7 breast) [µM]	GI50 (KM12 colon) [µM]	TGI (KM12 colon) [µM]	GI50 (CAKI-1 renal) [µM]	TGI (CAKI-1 renal) [µM]	TGI (ACHN renal) [µM]
COc1cc2ncnc(Nc3cccc(Br)c3)c2cc1OC	–	36.3	–	53.2	–	29.6	–	> 89.6	–	> 31.6	–	45.4	–	> 52	–	16.1	–	> 52.1	> 100
N#C/C=C(/NC(=O)Nc1ccccc1)N1CCCC1	–	> 62.2	–	> 100	–	> 76.3	–	> 46.4	–	> 100	–	> 100	–	> 55	–	> 100	–	> 59.8	> 57.3
Cc1ccc(S(=O)(=O)N(CC(O)COc2ccccc2)c2c(F)c(F)c(F)c(F)c2F)cc1 (centres undefined)	–	21.7	–	42.6	–	–	–	30.9	–	47.7	–	38.9	–	23.2	–	> 100	–	26.7	32
Cn1c2ccccc2n2c(=O)c(-c3ccc(Cl)cc3)nnc12	–	> 100	–	> 100	–	> 100	–	> 100	–	> 100	–	–	–	> 100	–	> 100	–	> 100	> 100
O=C1C(NS(=O)(=O)c2ccccc2)=C(n2ccnc2)C(=O)c2ccccc21	–	> 100	–	> 100	–	> 100	–	> 100	–	> 100	–	> 100	–	> 100	–	> 100	–	> 100	> 100
CCOC(=O)Cn1nnc2ccc(Nc3nc4ccccc4nc3C(=O)OCC)cc21	–	> 100	–	> 100	–	> 100	–	> 100	–	> 100	–	> 100	–	> 100	–	> 100	–	> 100	> 100
CCOC(=O)N1CCC2(CC1)C[C@](Sc1ccccc1)(C(C)=O)[C@H](C)O2	–	> 100	–	> 100	–	> 100	–	> 100	–	> 100	–	> 100	–	> 100	–	> 100	–	> 100	> 100
Cc1ccc2[nH]c3c(c2c1)C1CCC(C(C)(C)C)CC1C1C(=O)N(c2ccc(Oc4ccccc4)cc2)C(=O)C31 (centres undefined)	–	45.7	–	8.28	–	> 100	–	41.6	–	3.07	–	35.4	–	> 100	–	> 100	–	45.4	> 100
COc1nc2ncc([C@@H](OC(C)=O)[C@@H](COC(C)=O)OC(C)=O)nc2c(=O)n1C	–	> 100	–	> 100	–	> 100	–	> 100	–	> 100	–	> 100	–	> 100	–	> 100	–	> 100	> 100
COc1ccc(OC)c([N+](=O)[O-])c1-c1nc2sc(Cl)cn2c1/C=N/N=C(N)N	–	31.2	–	51.7	–	28.8	–	64.8	–	34.7	–	40.4	–	46.3	–	46.3	–	38.5	86.3
C[C@]12C(=O)OC[C@H](c3ccccc3)N1C(=O)N(Cc1ccccc1)[C@@H]2CO	–	> 100	–	> 100	–	> 100	–	> 100	–	> 100	–	> 100	–	> 100	–	> 100	–	> 100	> 100
COP(=O)(OC)[C@@](O)(c1ccccc1)[C@@H](O)[C@H](O)c1ccccc1	–	> 100	–	> 100	–	> 100	–	> 100	–	> 100	–	> 100	–	63.3	–	> 100	–	> 100	> 100
CCO/C(O)=c1/s/c(=C2/SC(=S)N(c3ccc(C)cc3)C2=O)n(-c2ccccc2)c1=N	–	> 100	–	66.8	–	> 100	–	> 95.8	–	> 100	–	> 100	–	> 100	–	> 100	–	–	> 100
CC1OC1C(=O)P(=O)(O)O (centres undefined)	–	> 100	–	> 100	–	> 100	–	> 100	–	> 100	–	> 100	–	> 100	–	> 100	–	> 100	> 100
C[N+](C)(N)Cc1nc(-c2ccc(Cl)cc2)no1	–	> 100	–	> 100	–	> 100	–	–	–	> 100	–	> 100	–	> 100	–	> 100	–	> 100	> 100
